The test system of series [1] is L2987. Description: In vitro inhibitory concentration of the unconjugated compound against human L2987 lung carcinoma cell line. Type of series: functional, cell-based.
Series [2] relates to L2987. Description: In vitro inhibitory concentration of the IgG conjugate of compound against human L2987 lung carcinoma cell line. The format is functional, cell-based.
Series [3] deals with L2987. Description: (§1) Potency against human L2987 lung carcinoma cell line relative to that of BR96-1b. The format is functional, cell-based.
Series [4] concerns L2987. Description: In vitro inhibitory concentration of the BR96 conjugate of compound against human L2987 lung carcinoma cell line. Type of series: functional, cell-based.
A short description of series [5]: Selectivity ratio determined as IC50 IgG-3b to that of IC50 BR96-3b. The format is functional.
Series [6] is described as follows: Hydrolytic stability at pH 5.0 at 37 degree C; expressed as T1/2. Type of series: physicochemical. As to conditions: buffer.
Series [7] in a line: Hydrolytic stability at pH 7.0 at 37 degree C; expressed as T1/2. Type of series: physicochemical. As to conditions: buffer.
Series [8] relates to L2987. Description: Potency against human L2987 lung carcinoma cell line relative to that of DOX 1a. Type of series: functional.
Series [9] can be described thus: Selectivity ratio determined as IC50 IgG-1b to that of IC50 BR96-1b. The format is functional.
Series [10] can be described thus: Selectivity ratio determined as IC50 IgG-2b to that of IC50 BR96-2b. Type of series: functional.
Series [11] has as its system L2987. The description is as §1. Type of series: functional.

As usually defined, the IC50 is the concentration at which inhibition is half-maximal. Higher therefore signals weaker potency. For the compound `COc1cccc2c1C(=O)c1c(O)c3c(c(O)c1C2=O)C[C@@](O)(C(=O)CO)C[C@@H]3O[C@H]1C[C@H](N)[C@H](O)[C@H](C)O1` [DOXORUBICIN], in [1], the midpoint of inhibition, the IC50, lay at 300 nM.
As for `COc1cccc2c1C(=O)c1c(O)c3c(c(O)c1C2=O)C[C@@](O)(/C(CO)=N/NC(=O)CCCCCN1C(=O)CC(S)C1=O)C[C@@H]3OC1C[C@H](N2CCOCC2)C(O)[C@H](C)O1` (stereo partly specified), the IC50 in series [2] worked out at 2000 nM; in series [3], 5000 nM; in series [4] it was 200 nM. The Ratio in series [5] was determined as 10.
Broadly, the half-life is the time needed for the level to fall by half in the phase considered. For `COc1cccc2c1C(=O)c1c(O)c3c(c(O)c1C2=O)C[C@@](O)(/C(CO)=N/NC(=O)CCCCCN1C(=O)CC(SCCO)C1=O)C[C@@H]3OC1C[C@H](NCCCCC(OC(C)=O)OC(C)=O)C(O)[C@H](C)O1` (stereo partly specified), the half-life in [6] was 6.5 h; in series [7], above 100 h.
In turn, `COc1cccc2c1C(=O)c1c(O)c3c(c(O)c1C2=O)C[C@@](O)(C(=O)CO)C[C@@H]3OC1C[C@H](NCCCCC(OC(C)=O)OC(C)=O)C(O)[C@H](C)O1` (stereo partly specified) had an IC50 in series [1] of 30 nM. For the same compound, the Relative potency in series [8] came out at 10.
Consider `COc1cccc2c1C(=O)c1c(O)c3c(c(O)c1C2=O)C[C@@](O)(/C(CO)=N/NC(=O)CCCCCN1C(=O)CC(S)C1=O)C[C@@H]3OC1C[C@H](N)C(O)[C@H](C)O1` (stereo partly specified), for which the Ratio in series [9] came to 8. This compound also displayed an IC50 in series [4] of 1000 nM.
With `COc1cccc2c1C(=O)c1c(O)c3c(c(O)c1C2=O)C[C@@](O)(C(=O)CO)C[C@@H]3OC1C[C@H](N2CCOCC2)C(O)[C@H](C)O1` (stereo partly specified), the IC50 in series [1] came out at 40 nM. The Relative potency in series [8] was found to be 8.
On to `COc1cccc2c1C(=O)c1c(O)c3c(c(O)c1C2=O)C[C@@](O)(/C(CO)=N/NC(=O)CCCCCN1C(=O)CC(SCCO)C1=O)C[C@@H]3OC1C[C@H](N)C(O)[C@H](C)O1` (stereo partly specified), for which the figures for the half-life in [6] and in [7] were 7 h and above 120 h, respectively.
Turning to `COc1cccc2c1C(=O)c1c(O)c3c(c(O)c1C2=O)C[C@@](O)(/C(CO)=N/NC(=O)CCCCCN1C(=O)CC(SCCO)C1=O)C[C@@H]3OC1C[C@H](N2CCOCC2)C(O)[C@H](C)O1` (stereo partly specified), the half-life in series [6] was 4.5 h; in series [7], above 95 h.
`COc1cccc2c1C(=O)c1c(O)c3c(c(O)c1C2=O)C[C@@](O)(/C(CO)=N/NC(=O)CCCCCN1C(=O)CC(S)C1=O)C[C@@H]3OC1C[C@H](NCCCCC(OC(C)=O)OC(C)=O)C(O)[C@H](C)O1` (stereo partly specified): the IC50 in series [2] worked out at 10000 nM; in [4], 30 nM. The Ratio in series [10] came to 300. In series [11], this compound yielded a Relative potency of 30.

(Values after ChEMBL document CHEMBL1136074, “BR96 conjugates of highly potent anthracyclines” (Bioorg Med Chem Lett, 2003).)
